Source: ChEMBL document CHEMBL1155648, “Three new arylobenzofurans from Onobrychis ebenoides and evaluation of their binding affinity for the estrogen receptor” (J Nat Prod, 2000)

Biological target: T1, Estrogen receptor (Homo sapiens, UniProt P03372)
T1 sequence (P03372 whole entry): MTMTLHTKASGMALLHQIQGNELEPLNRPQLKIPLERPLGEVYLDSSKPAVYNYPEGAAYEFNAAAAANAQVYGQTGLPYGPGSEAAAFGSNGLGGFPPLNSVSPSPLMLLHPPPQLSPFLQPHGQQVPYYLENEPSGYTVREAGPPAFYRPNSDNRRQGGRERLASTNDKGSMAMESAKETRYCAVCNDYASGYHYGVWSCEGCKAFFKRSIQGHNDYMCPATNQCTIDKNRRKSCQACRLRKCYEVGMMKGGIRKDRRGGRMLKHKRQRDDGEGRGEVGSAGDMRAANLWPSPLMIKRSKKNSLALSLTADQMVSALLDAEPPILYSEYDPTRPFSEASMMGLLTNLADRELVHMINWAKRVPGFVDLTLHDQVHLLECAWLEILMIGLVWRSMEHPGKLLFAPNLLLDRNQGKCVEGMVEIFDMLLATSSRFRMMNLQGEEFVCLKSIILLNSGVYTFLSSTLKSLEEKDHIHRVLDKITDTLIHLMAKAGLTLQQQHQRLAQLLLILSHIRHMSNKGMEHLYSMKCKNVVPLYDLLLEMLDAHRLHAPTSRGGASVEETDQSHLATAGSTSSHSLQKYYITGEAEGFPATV
Test: Displacement of [3H]estradiol from estrogen receptor

Structure (SMILES) | IC50 [nM]
COc1cc(O)c2c(C=O)c(-c3ccc(O)cc3O)oc2c1 [EBENFURAN II] | 43
COc1cc2oc(-c3ccc(O)cc3O)cc2cc1O [EBENFURAN I] | 46
